“Also recorded” adds a separate entry of the source.
System: microtubule-associated protein Tau
Experiment: nano PET/CT imaging in P301L gene transgenic mice and control mice
Format: in vivo
Conditions: 0.46 mCi by tail vein, 30 minutes of distribution
Excerpt: FIG. 3 is an image of the microtubule-associated protein Tau compound 29 of the present invention in P301L gene transgenic mice and control mice using positron emission tomography (nano PET/CT) analysis, in which P301L gene transgenic mice (source: United States JACKSON Research Center) refers to the mutation of proline to leucine at codon 301 of the encoded microtubule-associated protein Tau. These types of mutations can accelerate the formation of neurofibrillary tangles. P301L gene transgenic mice and control mice were injected through the tail vein with 0.46 millicuries (mCi) of compound 29 of the present invention, and after 30 minutes of distribution, radiography was performed on the mice using a positron emission tomography scanner (BIOSCAN).
0.46 mCi of compound 29 was injected into P301L gene transgenic mice and control mice, and after 30 minutes of distribution nano-PET/CT was used for contrast imaging.

SMILES: CC([18F])COc1ccc2cc(-n3cc4ccccc4c3)ncc2c1 (stereo not shown) [compound 29, [18F] 7-(2-fluoropropoxy)-3-(2H-isoindol-2-yl) isoquinoline]
- drug accumulation (absorption) in the brain of P301L gene transgenic mice versus control mice: significantly higher than that of the control mice; also recorded: significantly greater than that of control mice
